In article PMC12040184, “Zebrafish Polymerase Theta and human Polymerase Theta: Orthologues with homologous function” (PLOS One, 2025):

Legend:
hPol θ PD = molecular target: T1, hPol θ PD (Homo sapiens, UniProt O75417); experiment: primer extension, denaturing gel; format: biochemical
T1 construct: gene POLQ; pSUMO3 (POLQM1) vector, 6xHis-SUMO tag cut off; E. coli; ~90 kDa
T1 sequence (O75417 1791-2590): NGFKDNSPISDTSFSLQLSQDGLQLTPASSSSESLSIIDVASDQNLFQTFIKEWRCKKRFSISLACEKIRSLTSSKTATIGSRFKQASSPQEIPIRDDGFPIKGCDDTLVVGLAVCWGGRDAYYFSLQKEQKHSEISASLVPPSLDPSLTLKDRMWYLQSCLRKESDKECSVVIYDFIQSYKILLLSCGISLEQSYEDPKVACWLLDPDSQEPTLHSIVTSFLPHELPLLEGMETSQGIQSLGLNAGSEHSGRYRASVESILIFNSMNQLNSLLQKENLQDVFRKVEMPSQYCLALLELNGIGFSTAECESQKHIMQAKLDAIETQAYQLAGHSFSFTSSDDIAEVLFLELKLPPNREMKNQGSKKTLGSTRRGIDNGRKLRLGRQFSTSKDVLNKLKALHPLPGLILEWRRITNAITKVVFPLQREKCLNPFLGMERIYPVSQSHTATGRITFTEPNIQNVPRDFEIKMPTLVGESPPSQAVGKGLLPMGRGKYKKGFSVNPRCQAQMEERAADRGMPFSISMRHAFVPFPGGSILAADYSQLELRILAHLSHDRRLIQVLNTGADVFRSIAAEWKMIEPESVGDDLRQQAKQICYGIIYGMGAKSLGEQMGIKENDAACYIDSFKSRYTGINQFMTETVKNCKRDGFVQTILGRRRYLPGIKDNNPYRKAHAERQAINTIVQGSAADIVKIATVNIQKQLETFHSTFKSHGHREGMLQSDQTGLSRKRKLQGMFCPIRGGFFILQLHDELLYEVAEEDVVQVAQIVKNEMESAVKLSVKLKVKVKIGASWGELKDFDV

[1] = molecular target: T2, zPol theta PD (DNA polymerase theta polymerase domain) (zebrafish, UniProt F1Q4P4 1832-2576); experiment: EMSA; 10 nM DNA, 0-1000 nM protein; binding buffer (composition not given in the material), 1 h at room temperature, 6% native PAGE; conditions: protein: recombinant; tags: 6xHis-SUMO, cleaved off (untagged); label: 5'-6-FAM on strand 1 (25-mer primer); primer-template, 22 bp; 5' overhang 18 nt on template, 3 nt unpaired 5' TTT on primer
T2 sequence: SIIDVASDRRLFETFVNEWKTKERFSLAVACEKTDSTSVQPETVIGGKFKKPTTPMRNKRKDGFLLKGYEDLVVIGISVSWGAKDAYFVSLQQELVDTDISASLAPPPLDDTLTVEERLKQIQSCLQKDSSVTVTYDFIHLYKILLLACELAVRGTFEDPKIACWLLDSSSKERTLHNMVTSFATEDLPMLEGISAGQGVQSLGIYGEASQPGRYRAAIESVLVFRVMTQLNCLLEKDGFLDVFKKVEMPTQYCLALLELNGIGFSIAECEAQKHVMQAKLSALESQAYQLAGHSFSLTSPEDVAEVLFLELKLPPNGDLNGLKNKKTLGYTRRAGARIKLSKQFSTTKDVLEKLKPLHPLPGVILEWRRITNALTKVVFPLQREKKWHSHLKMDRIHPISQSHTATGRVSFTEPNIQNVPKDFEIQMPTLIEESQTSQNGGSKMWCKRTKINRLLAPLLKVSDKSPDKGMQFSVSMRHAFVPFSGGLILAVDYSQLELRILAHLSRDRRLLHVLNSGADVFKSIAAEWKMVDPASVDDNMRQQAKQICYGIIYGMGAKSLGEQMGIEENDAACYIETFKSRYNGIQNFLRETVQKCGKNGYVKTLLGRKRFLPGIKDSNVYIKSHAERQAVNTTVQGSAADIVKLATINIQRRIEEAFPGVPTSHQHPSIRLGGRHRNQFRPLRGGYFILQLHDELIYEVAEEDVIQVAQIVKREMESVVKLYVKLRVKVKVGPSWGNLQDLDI

Molecule: Nc1ncnc2c1ncn2[C@H]1C[C@H](O)[C@@H](COP(=O)(O)OP(=O)(O)OP(=O)(O)O)O1 [dATP]
- primer extension, denaturing gel (hPol θ PD; CPD (T-T dimer) 24/33 DNA, 10 mM MgCl2 or MnCl2, pH 8.0, 37 °C, single turnover): Both enzymes were able to readily insert opposite a T-T dimer

Molecule: Nc1ccn([C@H]2C[C@H](O)[C@@H](COP(=O)(O)OP(=O)(O)OP(=O)(O)O)O2)c(=O)n1 [dCTP]
- primer extension, denaturing gel (hPol θ PD; 25/40 dsDNA, templating G, MgCl2 or MnCl2, pH 8.0, 37 °C, steady state): Both enzymes were able to incorporate single nucleotides, correct and incorrect as well

B1: 25/40 dsDNA undamaged (dsDNA)
DNA 1: TTTGCCTTGACCATGTAACAGAGAG
DNA 2: TCTCTTCTCTCACTCACGCTCTCTGTTACATGGTCAAGGC
- Kd [1]: 19.8 ± 3.1 nM
